From PubChem BioAssay AID256 (DTP/NCI, 2004)
Inconclusive results and toxic doses are left out. Rule for the calls: active = survival T/C of 150% or more; inactive = T/C below 125% in these data.

Tested on: CD2F1 mice, L1210 leukemia ip, survival T/C
Assay: NCI In Vivo Anticancer Drug Screen. Data for tumor model L1210 Leukemia (intraperitoneal) in CD2F1 (CDF1) mice
Details: higher = longer survival
Outline: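 Mice carrying a transplanted tumor received test compound or vehicle alone. The value is the measurement in the treated group divided by that in the vehicle-treated control group.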

[1] = endpoint: mean survival time, dose: 100.0 mg/kg/injection, schedule: Q01DX009 (ip), vehicle: saline with Tween-80
[2] = endpoint: mean survival time, dose: 200.0 mg/kg/injection, schedule: Q01DX009 (ip), vehicle: saline with Tween-80
[3] = endpoint: mean survival time, dose: 400.0 mg/kg/injection, schedule: Q01DX009 (ip), vehicle: saline with Tween-80
[4] = endpoint: mean survival time, dose: 100.0 mg/kg/injection, schedule: Q04DX003 (ip), vehicle: saline with Tween-80
[5] = endpoint: mean survival time, dose: 200.0 mg/kg/injection, schedule: Q04DX003 (ip), vehicle: saline with Tween-80
[6] = endpoint: mean survival time, dose: 400.0 mg/kg/injection, schedule: Q04DX003 (ip), vehicle: saline with Tween-80
[7] = endpoint: mean survival time, dose: 100.0 mg/kg/injection, schedule: Q01DX001 (ip), vehicle: saline
[8] = endpoint: mean survival time, dose: 100.0 mg/kg/injection, schedule: Q04DX002 (ip), vehicle: saline with Tween-80
[9] = endpoint: mean survival time, dose: 200.0 mg/kg/injection, schedule: Q04DX002 (ip), vehicle: saline with Tween-80
[10] = endpoint: mean survival time, dose: 400.0 mg/kg/injection, schedule: Q04DX002 (ip), vehicle: saline with Tween-80
[11] = endpoint: mean survival time, dose: 50.0 mg/kg/injection, schedule: Q01DX009 (ip), vehicle: Klucel (hydroxypropylcellulose) (HPC)
[12] = endpoint: mean survival time, dose: 100.0 mg/kg/injection, schedule: Q01DX009 (ip), vehicle: Klucel (hydroxypropylcellulose) (HPC)
[13] = endpoint: mean survival time, dose: 200.0 mg/kg/injection, schedule: Q01DX009 (ip), vehicle: Klucel (hydroxypropylcellulose) (HPC)
[14] = endpoint: mean survival time, dose: 12.5 mg/kg/injection, schedule: Q01DX005 (ip), vehicle: water
[15] = endpoint: mean survival time, dose: 25.0 mg/kg/injection, schedule: Q01DX005 (ip), vehicle: water
[16] = endpoint: mean survival time, dose: 50.0 mg/kg/injection, schedule: Q01DX005 (ip), vehicle: water
[17] = endpoint: mean survival time, dose: 100.0 mg/kg/injection, schedule: Q01DX005 (ip), vehicle: water
[18] = endpoint: mean survival time, dose: 200.0 mg/kg/injection, schedule: Q01DX005 (ip), vehicle: water

Measured: T/C

Brc1ccc(Br)cc1
inactive: [1] 103 % of control | [2] 100 % of control | [3] 97 % of control

CCC(N)c1ccc2c3c(cccc13)CC2 (stereo unspecified)
inactive: endpoint: mean survival time, dose: 100.0 mg/kg/injection, schedule: Q01DX001 (ip), vehicle: saline with Tween-80 89 % of control | endpoint: mean survival time, dose: 200.0 mg/kg/injection, schedule: Q01DX001 (ip), vehicle: saline with Tween-80 86 % of control | endpoint: mean survival time, dose: 400.0 mg/kg/injection, schedule: Q01DX001 (ip), vehicle: saline with Tween-80 89 % of control

COc1ccccc1OC(=O)Nc1cc([N+](=O)[O-])ccc1C
inactive: [4] 89 % of control | [5] 97 % of control | [6] 87 % of control

CCOC(OCC)c1cc(=O)[nH]c(N)n1
inactive: [7] 103 % of control | endpoint: mean survival time, dose: 200.0 mg/kg/injection, schedule: Q01DX001 (ip), vehicle: saline 101 % of control | endpoint: mean survival time, dose: 400.0 mg/kg/injection, schedule: Q01DX001 (ip), vehicle: saline 100 % of control

CC(C(C(=O)O)S(=O)(=O)O)C(C(=O)O)S(=O)(=O)O (stereo unspecified)
inactive: endpoint: mean survival time, dose: 12.5 mg/kg/injection, schedule: Q01DX001 (ip), vehicle: other 91 % of control | endpoint: mean survival time, dose: 25.0 mg/kg/injection, schedule: Q01DX001 (ip), vehicle: other 95 % of control | endpoint: mean survival time, dose: 50.0 mg/kg/injection, schedule: Q01DX001 (ip), vehicle: other 98 % of control

CC(CCC1OC2CC3C4CCC5CC(OC(=O)c6ccccc6)CCC5(C)C4CCC3(C)C2C1C)COC(=O)c1ccccc1 (stereo unspecified)
inactive: [8] 90 % of control | [9] 94 % of control | [10] 86 % of control

CC(C)[S][Pb]([c]1ccccc1)([c]1ccccc1)[c]1ccccc1
inactive: endpoint: mean survival time, dose: 1.25 mg/kg/injection, schedule: Q01DX009 (ip), vehicle: gum acacia 93 % of control | endpoint: mean survival time, dose: 2.5 mg/kg/injection, schedule: Q01DX009 (ip), vehicle: gum acacia 98 % of control | endpoint: mean survival time, dose: 5.0 mg/kg/injection, schedule: Q01DX009 (ip), vehicle: gum acacia 96 % of control

Cc1ccc(C)c(C(O)C(=O)O)c1 (stereo unspecified)
inactive: endpoint: mean survival time, dose: 100.0 mg/kg/injection, schedule: Q04DX002 (ip), vehicle: Klucel (hydroxypropylcellulose) (HPC) 94 % of control | endpoint: mean survival time, dose: 200.0 mg/kg/injection, schedule: Q04DX002 (ip), vehicle: Klucel (hydroxypropylcellulose) (HPC) 105 % of control | endpoint: mean survival time, dose: 400.0 mg/kg/injection, schedule: Q04DX002 (ip), vehicle: Klucel (hydroxypropylcellulose) (HPC) 98 % of control

Cc1c(C(=O)O)cc([N+](=O)[O-])cc1[N+](=O)[O-]
inactive: [1] 102 % of control | [2] 100 % of control | [3] 96 % of control

CN(C)c1ccc(/C=N/NC(=O)c2ccccc2NC(=O)c2ccccc2Cl)cc1
inactive: [11] 87 % of control | [12] 94 % of control | [13] 91 % of control

O=C(/C=C\c1ccnc2ccccc12)c1ccc([N+](=O)[O-])cc1
inactive: endpoint: mean survival time, dose: 12.5 mg/kg/injection, schedule: Q01DX009 (ip), vehicle: other 94 % of control | endpoint: mean survival time, dose: 25.0 mg/kg/injection, schedule: Q01DX009 (ip), vehicle: other 89 % of control | endpoint: mean survival time, dose: 50.0 mg/kg/injection, schedule: Q01DX009 (ip), vehicle: other 89 % of control | endpoint: mean survival time, dose: 100.0 mg/kg/injection, schedule: Q01DX009 (ip), vehicle: other 92 % of control | [4] 97 % of control | endpoint: mean survival time, dose: 200.0 mg/kg/injection, schedule: Q01DX009 (ip), vehicle: other 97 % of control | [5] 94 % of control | [6] 91 % of control

CC(=O)c1cno[n+]1[O-]
inactive: endpoint: mean survival time, dose: 5.0 mg/kg/injection, schedule: Q01DX009 (ip), vehicle: saline with Tween-80 97 % of control | endpoint: mean survival time, dose: 10.0 mg/kg/injection, schedule: Q01DX009 (ip), vehicle: saline with Tween-80 113 % of control

CC1CC2OC(=O)C(O)(CO)C2CC2(C)C(=O)C=CC12 (stereo unspecified)
inactive: endpoint: mean survival time, dose: 25.0 mg/kg/injection, schedule: Q04DX002 (ip), vehicle: saline 102 % of control | endpoint: mean survival time, dose: 50.0 mg/kg/injection, schedule: Q04DX002 (ip), vehicle: saline 107 % of control

CC(=O)Oc1cc([N+](=O)[O-])ccc1C(=O)O
inactive: [1] 102 % of control | [2] 102 % of control

Nc1ncnc2c1nc([Se])n2C1OC(CO)C(O)C1O (stereo unspecified)
inactive: [14] 100 % of control | [15] 97 % of control | [16] 100 % of control | [17] 95 % of control | [18] 90 % of control

CCOC(=O)NCC1CCC(CO)CC1 (stereo unspecified)
inactive: [8] 95 % of control | [9] 117 % of control | [10] 98 % of control

Cn1c(=O)c2c(nc(-[n+]3ccccc3)n2C)n(C)c1=O
inactive: [14] 94 % of control | [15] 100 % of control | [16] 103 % of control | [17] 103 % of control | [18] 120 % of control

c1ccc(-c2ncnc3c2Cc2ccccc2-3)cc1
inactive: endpoint: mean survival time, dose: 100.0 mg/kg/injection, schedule: Q01DX009 (ip), vehicle: saline sonified 94 % of control | endpoint: mean survival time, dose: 200.0 mg/kg/injection, schedule: Q01DX009 (ip), vehicle: saline sonified 100 % of control | endpoint: mean survival time, dose: 400.0 mg/kg/injection, schedule: Q01DX009 (ip), vehicle: saline sonified 98 % of control

NNC(=O)c1nc(N)n[nH]1
inactive: [4] 101 % of control | [5] 103 % of control | [6] 104 % of control

N#CC1CC2C=CC1C2 (stereo unspecified)
inactive: endpoint: mean survival time, dose: 5.0 mg/kg/injection, schedule: Q01DX009 (ip), vehicle: saline 98 % of control | endpoint: mean survival time, dose: 5.0 mg/kg/injection, schedule: Q04DX003 (ip), vehicle: saline 95 % of control | endpoint: mean survival time, dose: 10.0 mg/kg/injection, schedule: Q01DX009 (ip), vehicle: saline 98 % of control | endpoint: mean survival time, dose: 10.0 mg/kg/injection, schedule: Q04DX003 (ip), vehicle: saline 97 % of control | endpoint: mean survival time, dose: 20.0 mg/kg/injection, schedule: Q01DX009 (ip), vehicle: saline 87 % of control | endpoint: mean survival time, dose: 20.0 mg/kg/injection, schedule: Q04DX003 (ip), vehicle: saline 100 % of control

COc1ccc(C(OCC2OC(n3ccc(NC(=O)c4ccccc4)nc3=O)C(O)C2O)(c2ccccc2)c2ccccc2)cc1 (stereo unspecified)
inactive: endpoint: median survival time, dose: 12.5 mg/kg/injection, schedule: Q01DX005 (ip), vehicle: saline with Tween-80 100 % of control | endpoint: median survival time, dose: 25.0 mg/kg/injection, schedule: Q01DX005 (ip), vehicle: saline with Tween-80 104 % of control | endpoint: median survival time, dose: 50.0 mg/kg/injection, schedule: Q01DX005 (ip), vehicle: saline with Tween-80 104 % of control | endpoint: median survival time, dose: 100.0 mg/kg/injection, schedule: Q01DX005 (ip), vehicle: saline with Tween-80 98 % of control | endpoint: median survival time, dose: 200.0 mg/kg/injection, schedule: Q01DX005 (ip), vehicle: saline with Tween-80 95 % of control

O=C(/C=C/c1ccc(Cl)cc1)c1ccccc1
inactive: [11] 94 % of control | [12] 102 % of control | [13] 105 % of control

Cc1c(Br)c(=O)[nH]c2ccccc12
inactive: [1] 96 % of control | [4] 101 % of control | [2] 96 % of control | [5] 98 % of control | [3] 94 % of control | [6] 101 % of control

CCN(CC)CCC(=O)c1ccc2ccc3ccccc3c2c1
inactive: endpoint: mean survival time, dose: 50.0 mg/kg/injection, schedule: Q01DX001 (ip), vehicle: saline 93 % of control | [7] 89 % of control

Nc1nc(N)c2c(n1)NCN(Cc1ccc(Cl)cc1Cl)C2
inactive: endpoint: mean survival time, dose: 0.75 mg/kg/injection, schedule: Q01DX009 (ip), vehicle: water 105 % of control | endpoint: mean survival time, dose: 1.5 mg/kg/injection, schedule: Q01DX009 (ip), vehicle: water 94 % of control | endpoint: mean survival time, dose: 3.0 mg/kg/injection, schedule: Q01DX009 (ip), vehicle: water 100 % of control | endpoint: mean survival time, dose: 6.0 mg/kg/injection, schedule: Q01DX009 (ip), vehicle: water 100 % of control | endpoint: mean survival time, dose: 12.0 mg/kg/injection, schedule: Q01DX009 (ip), vehicle: water 96 % of control | endpoint: mean survival time, dose: 24.0 mg/kg/injection, schedule: Q01DX009 (ip), vehicle: water 100 % of control | endpoint: mean survival time, dose: 37.5 mg/kg/injection, schedule: Q01DX009 (ip), vehicle: water 96 % of control | endpoint: mean survival time, dose: 75.0 mg/kg/injection, schedule: Q01DX009 (ip), vehicle: water 91 % of control

NC1=CC(=O)c2ccccc2C1=O
inactive: endpoint: mean survival time, dose: 50.0 mg/kg/injection, schedule: Q01DX009 (ip), vehicle: saline with Tween-80 96 % of control | [1] 100 % of control

C=CCNC(=O)C[n+]1cccc(C(=O)Nc2ccccc2)c1
inactive: [4] 97 % of control
